Paper PMC9204775 (ACS Chemical Neuroscience, 2022)

Legend:
human (α4)2(β2)3 nAChR = biological target: T1, human (α4)2(β2)3 nAChR (Homo sapiens, UniProt P17787+P43681); experiment: Two-electrode voltage-clamp recording, (α4)2(β2)3 nAChRs expressed in Xenopus oocytes (α4:β2 cRNA 1:10); type: cell-based; conditions: for stoichiometry selectivity of antagonism, (α4)2(β2)3 versus (α4)3(β2)2 nAChRs: 100 μM antibiotic coapplied with EC50 concentration of ACh, compared with (α4)3(β2)2; for remaining activity at 100 µM: read-out: (α4)2(β2)3 nAChR (% control response to ACh)
T1 construct: expressed in transfected cells; host or cells: Xenopus laevis oocytes (cRNA injection)
T1 sequence (P43681 27-627): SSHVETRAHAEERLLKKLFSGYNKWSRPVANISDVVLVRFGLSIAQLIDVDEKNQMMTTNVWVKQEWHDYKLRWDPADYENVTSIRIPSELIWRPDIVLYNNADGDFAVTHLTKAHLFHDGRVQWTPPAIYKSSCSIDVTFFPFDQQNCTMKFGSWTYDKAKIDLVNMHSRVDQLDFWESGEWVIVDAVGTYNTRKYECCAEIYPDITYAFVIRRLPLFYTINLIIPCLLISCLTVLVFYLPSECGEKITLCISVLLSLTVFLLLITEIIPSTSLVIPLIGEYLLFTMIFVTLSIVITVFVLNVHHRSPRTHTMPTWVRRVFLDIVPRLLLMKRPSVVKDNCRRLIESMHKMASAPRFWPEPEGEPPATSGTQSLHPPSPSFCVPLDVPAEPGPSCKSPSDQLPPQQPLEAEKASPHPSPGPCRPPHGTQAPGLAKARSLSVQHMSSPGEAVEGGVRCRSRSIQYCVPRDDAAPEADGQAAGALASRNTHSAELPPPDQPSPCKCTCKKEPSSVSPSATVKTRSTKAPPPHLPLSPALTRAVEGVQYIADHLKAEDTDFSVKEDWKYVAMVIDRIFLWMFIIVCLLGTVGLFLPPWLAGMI
T1 sequence (P17787 26-502): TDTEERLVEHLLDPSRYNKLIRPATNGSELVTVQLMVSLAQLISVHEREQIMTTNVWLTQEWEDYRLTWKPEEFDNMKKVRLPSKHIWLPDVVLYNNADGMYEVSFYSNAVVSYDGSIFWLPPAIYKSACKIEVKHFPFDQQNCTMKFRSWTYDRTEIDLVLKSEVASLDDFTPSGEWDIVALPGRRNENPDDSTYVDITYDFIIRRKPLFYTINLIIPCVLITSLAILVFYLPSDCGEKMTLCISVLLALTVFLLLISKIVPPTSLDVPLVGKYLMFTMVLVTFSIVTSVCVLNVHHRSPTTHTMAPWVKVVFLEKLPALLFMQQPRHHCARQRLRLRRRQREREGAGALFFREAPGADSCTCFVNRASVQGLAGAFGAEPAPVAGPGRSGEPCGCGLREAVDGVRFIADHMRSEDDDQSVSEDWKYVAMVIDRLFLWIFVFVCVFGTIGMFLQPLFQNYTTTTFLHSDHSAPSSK
Method: (§2) To achieve heterologous expression of human α4β2 nAChRs in two distinct subunit stoichiometries [(α4)2(β2)3 and (α4)3(β2)2], a well-established protocol was employed in which Xenopus laevis oocytes were injected with α4 and β2 cRNA in ratios of 1:10 and 10:1, respectively.[19],[20] […] Oocytes were injected, using a Drummond variable volume microinjector, with 32.2 nL of cRNA containing either a mixture of 30 ng/μL human α4 and 300 ng/μL human β2 or 300 ng/μL human α4 and 30 ng/μL human β2 cRNAs.
(§3) Xenopus were anesthetized by immersion in 0.2% MS222 for 15 min (or until complete anesthesia was confirmed by absence of leg-withdrawal and righting reflex), followed by cranial concussion, decapitation, and pithing. Xenopus oocytes were isolated, maintained, and injected with cRNA, as described previously.[21] […] Application of compounds was controlled by LabChart software (AD Instruments) using a BPS-8 solenoid valve solution exchange system (ALA Scientific Inc.). Typically, agonists were applied for 5 s or until a plateau in the response was observed. Antagonists were preapplied for 30 s and then coapplied with agonist for 5 s or until a plateau in the response was observed.
(§4) For individual pairwise comparisons, statistical significance was determined using unpaired Student’s t tests or ANOVA for multiple comparisons. Dose–response curves were fitted by GraphPad Prism, using the following equation (where I is the current, Imax is the maximum current, the EC50 is the concentration of agonist that elicits a half-maximal response, and nH is the Hill coefficient): [drawing 1]

human (α4)3(β2)2 nAChR = human (α4)3(β2)2 nAChR (Homo sapiens, UniProt P17787+P43681); experiment: Two-electrode voltage-clamp recording, (α4)3(β2)2 nAChRs expressed in Xenopus oocytes (α4:β2 cRNA 10:1); conditions: for remaining activity at 100 µM: read-out: (α4)3(β2)2 nAChR (% control response ACh)
Sequence of human (α4)3(β2)2 nAChR (P43681 27-627): as the sequence (P43681 27-627) above
Sequence of human (α4)3(β2)2 nAChR (P17787 26-502): as the sequence (P17787 26-502) above
Method: as §2, §3, §4

human α7 nAChRs = conditions: previous studies; cited from earlier work
[1] = biological target: α4β2 nAChRs containing mutated α4^L283A (Homo sapiens, UniProt P17787+P43681, L283A); conditions: no ACh
Sequence of α4β2 nAChRs containing mutated α4^L283A (P43681 27-627 L283A): as the sequence (P43681 27-627) above, with L257A counted along it
Sequence of α4β2 nAChRs containing mutated α4^L283A (P17787 26-502): as the sequence (P17787 26-502) above
Text: (§1) Human nAChR subunit cDNAs in plasmid expression vector pSP64GL (pSP64GL-α4 and pSP64GL-β2) have been described previously.[18] […] Note that the numbering of these amino acids in the human nAChR α4 and β2 subunits is based on the intact protein sequence (including the signal sequence), as indicated in the EMBL/GenBank database entries NP_000735.1 and NP_000739.1, respectively.

[2] = biological target: α4β2 nAChRs containing mutated α4^S284A (Homo sapiens, UniProt P17787+P43681, S284A); conditions: no ACh
Sequence of α4β2 nAChRs containing mutated α4^S284A (P43681 27-627 S284A): as the sequence (P43681 27-627) above, with S258A counted along it
Sequence of α4β2 nAChRs containing mutated α4^S284A (P17787 26-502, stated change not applied): as the sequence (P17787 26-502) above
Text: as §1

[3] = biological target: α4β2 nAChRs containing the β2^V278A subunit (Homo sapiens, UniProt P17787+P43681, V278A); conditions: no ACh
Sequence of α4β2 nAChRs containing the β2^V278A subunit (P43681 27-627): as the sequence (P43681 27-627) above
Sequence of α4β2 nAChRs containing the β2^V278A subunit (P17787 26-502 V278A): as the sequence (P17787 26-502) above, with V253A counted along it
Text: as §1

human α4β2 nAChR = biological target: T2, human α4β2 nAChR (Homo sapiens, UniProt P17787+P43681); experiment: Two-electrode voltage-clamp recording, heterologously expressed α4β2 nAChRs (stoichiometry not distinguished); type: cell-based; conditions: wild-type, no ACh
T2 construct: expressed in transfected cells; host or cells: Xenopus laevis oocytes (cRNA injection)
T2 sequence (P43681 27-627): as the sequence (P43681 27-627) above
T2 sequence (P17787 26-502): as the sequence (P17787 26-502) above
Method: as §2
Xenopus oocytes were isolated, maintained, and injected with cRNA, as described previously.[21] Two-electrode voltage-clamp recordings were performed using a Warner Instruments OC-725C amplifier (Harvard Apparatus) with the oocyte membrane potential held at −60 mV, as described previously.[22] Oocytes were continuously perfused with a modified Ringer’s solution (115 mM NaCl, 2.5 mM KCl, 1.8 mM BaCl2, and 10 mM HEPES, pH 7.3). Application of compounds was controlled by LabChart software (AD Instruments) using a BPS-8 solenoid valve solution exchange system (ALA Scientific Inc.). Typically, agonists were applied for 5 s or until a plateau in the response was observed. Antagonists were preapplied for 30 s and then coapplied with agonist for 5 s or until a plateau in the response was observed.

[4] = 100 μM antibiotic coapplied with a range of ACh concentrations

Structure (SMILES)	remaining activity at 100 µM (human (α4)2(β2)3 nAChR) [%]	remaining activity at 100 µM (human (α4)3(β2)2 nAChR) [%]	stoichiometry selectivity of antagonism, (α4)2(β2)3 versus (α4)3(β2)2 nAChRs (human (α4)2(β2)3 nAChR)	also measured
CCn1cc(C(=O)O)c(=O)c2cc3c(cc21)OCO3 [oxolinic acid]	59.5 ± 0.99	60.4 ± 0.72	no significant difference	
CCn1cc(C(=O)O)c(=O)c2cc(F)c(N3CCN(C)CC3)cc21 [pefloxacin]				mode of action on α7 nAChR (human α7 nAChRs): noncompetitive antagonist
CCn1nc(C(=O)O)c(=O)c2cc3c(cc21)OCO3 [cinoxacin]	58.2 ± 1.2	60.4 ± 0.61		effect when applied alone [1]: no effect; effect when applied alone [2]: no effect; effect when applied alone [3]: no effect; Hill coefficient of ACh dose-response curve in the presence of the antibiotic (human (α4)2(β2)3 nAChR; 100 μM antibiotic): 1.0 ± 0.1; maximal normalized ACh response in the presence of the antibiotic (human (α4)2(β2)3 nAChR; [4]): 76.0 ± 1.5%; Hill coefficient of ACh dose-response curve in the presence of the antibiotic (human (α4)3(β2)2 nAChR; 100 μM antibiotic): 0.62 ± 0.2; maximal normalized ACh response in the presence of the antibiotic (human (α4)3(β2)2 nAChR; [4]): 80.0 ± 0.9%; effect when applied alone (human α4β2 nAChR): no effect
CN1CCN(c2cc3c(cc2F)c(=O)c(C(=O)O)cn3-c2ccc(F)cc2)CC1 [difloxacin]	39.9 ± 3.02	57.2 ± 0.97	significantly greater antagonism on (α4)2(β2)3 nAChRs than on (α4)3(β2)2 nAChRs	
CC(=O)OCC[N+](C)(C)C [ACh, acetylcholine]				Hill coefficient of ACh dose-response curve (human (α4)3(β2)2 nAChR; absence of antibiotic): 0.74 ± 0.
CCn1cc(C(=O)O)c(=O)c2cc(F)c(N3CCNCC3)cc21 [norfloxacin]	13 ± 1	54.1 ± 3.4	significantly greater antagonism on (α4)2(β2)3 nAChRs than on (α4)3(β2)2 nAChRs	

The next lines start with results.

remaining activity at 100 µM (human (α4)2(β2)3 nAChR) [%]	remaining activity at 100 µM (human (α4)3(β2)2 nAChR) [%]	Structure (SMILES)	stoichiometry selectivity of antagonism, (α4)2(β2)3 versus (α4)3(β2)2 nAChRs (human (α4)2(β2)3 nAChR)	also measured
17.4 ± 1.12	58.4 ± 1.72	C[C@@H]1CN(c2c(F)c(N)c3c(=O)c(C(=O)O)cn(C4CC4)c3c2F)C[C@H](C)N1 [sparfloxacin]	significantly greater antagonism on (α4)2(β2)3 nAChRs than on (α4)3(β2)2 nAChRs	
23.5 ± 1.65	74.6 ± 1.88	CCn1cc(C(=O)O)c(=O)c2cc(F)c(N3CCNCC3)nc21 [enoxacin]	significantly greater antagonism on (α4)2(β2)3 nAChRs than on (α4)3(β2)2 nAChRs	
13.2 ± 0.46	64.8 ± 1.01	CCN1CCN(c2cc3c(cc2F)c(=O)c(C(=O)O)cn3C2CC2)CC1 [enrofloxacin]	significantly greater antagonism on (α4)2(β2)3 nAChRs than on (α4)3(β2)2 nAChRs	
